As usually defined, the EC50 is the concentration at which the effect is half-maximal. Read a high EC50 as a less potent agent.

Structures can show the parent of a compound that is named as a salt.

Sequence of Glycogen synthase kinase-3 beta (P49841 whole entry): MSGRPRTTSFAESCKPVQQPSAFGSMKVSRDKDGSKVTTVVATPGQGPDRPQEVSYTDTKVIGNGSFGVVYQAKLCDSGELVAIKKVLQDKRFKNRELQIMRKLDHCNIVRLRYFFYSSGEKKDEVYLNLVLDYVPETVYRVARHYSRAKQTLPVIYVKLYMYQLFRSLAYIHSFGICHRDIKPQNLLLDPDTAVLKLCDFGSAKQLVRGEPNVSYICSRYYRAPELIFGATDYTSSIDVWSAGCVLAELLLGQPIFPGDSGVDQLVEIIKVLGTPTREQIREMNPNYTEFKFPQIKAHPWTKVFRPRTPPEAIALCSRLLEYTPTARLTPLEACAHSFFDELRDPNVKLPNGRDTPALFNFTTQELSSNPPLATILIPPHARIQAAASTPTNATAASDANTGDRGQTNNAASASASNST

This assay has as its target Glycogen synthase kinase-3 beta (Homo sapiens, UniProt P49841). Kind of assay: GSK3beta kinase inhibitor potency, dose response, biochemical, luminescence, cell-free homogeneous, retest (AID 434954).
Take `COc1ccc(/C=C2/Sc3ccc(C(=O)NCCCN4CCOCC4)cc3NC2=O)cc1OC` [(2E)-2-[(3,4-dimethoxyphenyl)methylidene]-N-[3-(4-morpholinyl)propyl]-3-oxo-4H-1,4-benzothiazine-6-carboxamide]: the concentration giving a half-maximal response (EC50) was 60.3 µM. The value for `COc1ccc(C(=O)/C=C2/C(=O)Nc3ccccc32)c(OC)c1` [SMR000543845] was above 300 µM; that for `CCN1CCc2c(C#N)c(N3CCCCC3)nc(N3CCOCC3)c2C1` [MLS000071254] was 16.1 µM; that for `CC(C)n1cnc2c(Nc3cccc(Cl)c3)nc(NCCCO)nc21` was above 300 µM. The molecule `Cc1ccc(SCC(=O)Nc2ccc3c(c2)C(=O)NC3=O)cc1` [N-[1,3-bis(oxidanylidene)isoindol-5-yl]-2-(4-methylphenyl)sulfanyl-ethanamide] had an EC50 above 300 µM.

`CCCn1nc(NC(=O)C(C)(C)C)c2cc3cc(OC)ccc3nc21` [N-(6-methoxy-1-propylpyrazolo[3,4-b]quinolin-3-yl)-2,2-dimethylpropanamide] returned a concentration for a half-maximal effect (EC50) of 63.8 µM. The value for `CCN1CCN(CCCNC(=O)c2ccc3c(c2)NC(=O)/C(=C\c2cccc(C)c2)S3)CC1` [(2E)-N-[3-(4-ethyl-1-piperazinyl)propyl]-2-[(3-methylphenyl)methylidene]-3-oxo-4H-1,4-benzothiazine-6-carboxamide] was 16.1 µM. The value for `CCc1nnc(NC(=O)c2cc(-c3ccccc3)nn2-c2ccccc2)s1` [SMR000152662] was above 300 µM. The value for `N#CCCSc1nc(N2CCOCC2)c2c(c1C#N)CCCC2` [3-(2-cyanoethylthio)-1-(4-morpholinyl)-5,6,7,8-tetrahydroisoquinoline-4-carbonitrile] was 9.29 µM; that for `Cc1[nH]nc2c1C(c1cccs1)C1C(=O)CC(C)(C)CC1=N2` (stereo not given) [3,7,7-trimethyl-4-thiophen-2-yl-2,4,6,8-tetrahydro-1H-pyrazolo[3,4-b]quinolin-5-one] was 1.36 µM.

Molecule `COC(=O)Cc1ccc2sc(-c3ccccc3)nc2c1` [(2-Phenyl-benzothiazol-5-yl)-acetic acid methyl ester] came in with an EC50 above 300 µM. The value for `CN1CCc2c(sc3c2c(=O)n(-c2ccccc2)c2n[nH]c(=S)n32)C1` [MLS000558136] was 21.7 µM. Take `COc1ccc(Nc2nc3ccc(OC)cc3s2)cc1` [MLS000684722]: the EC50 was above 300 µM. The value for `N#Cc1c(-c2ccccc2)nc(SCC(=O)NC2CCCCC2)[nH]c1=O` [2-[(5-cyano-4-oxo-6-phenyl-1H-pyrimidin-2-yl)sulfanyl]-N-cyclohexylacetamide] was above 300 µM. As to `CC(=O)Nc1nnc(CSCc2ccc(F)cc2)s1` [N-[5-[(4-fluorophenyl)methylsulfanylmethyl]-1,3,4-thiadiazol-2-yl]acetamide], the EC50 is above 300 µM. The value for `COc1ccc(N(C(=O)c2ccncc2)S(=O)(=O)c2cccc([N+](=O)[O-])c2)cc1` [SMR000668685] was above 300 µM.

Regarding `CCOc1ccc(NC(=O)Nc2cnccn2)cc1` [SMR000297712], the EC50 was above 300 µM. As for `O=C(CCc1ccccc1)Nc1ccc2c(c1)OCCO2` [N-(2,3-dihydro-1,4-benzodioxin-6-yl)-3-phenyl-propanamide], the EC50 is above 300 µM. The value for `CCCCOC(=O)c1ccc(O)cc1` [butyl 4-hydroxybenzoate] was above 300 µM; that for `O=C(Cn1nnc(-c2ccccc2)n1)NN=Cc1ccc(-c2ccc(Cl)cc2)o1` [N'-{[5-(4-chlorophenyl)-2-furyl]methylene}-2-(5-phenyl-2H-tetrazol-2-yl)acetohydrazide] was above 300 µM.

Turning to `O=C(O)c1cc(C2CC2)nc2ccccc12` [2-cyclopropyl-4-quinolinecarboxylic acid], the EC50 was above 300 µM. The value for `CCOC(=O)c1sc2c(c1C)C(c1cccs1)C1C(=O)CCCC1=N2` (stereo not given) [MLS000082170] was above 300 µM.

`Cc1ccnc(SCCn2c(N3CCOCC3)nc3c2c(=O)[nH]c(=O)n3C)n1` [3-methyl-7-[2-(4-methylpyrimidin-2-yl)sulfanylethyl]-8-morpholin-4-ylpurine-2,6-dione] had an EC50 above 300 µM.

On to `O=C(NN=Cc1ccccn1)c1cccnc1` [Nicotinic acid [1-pyridin-2-yl-meth-(E)-ylidene]-hydrazide], for which the half-maximal effective concentration (EC50) was above 300 µM.

Take `CN(Cc1ccccc1)Cc1nc2c([nH]1)c(=O)n(C)c(=O)n2C` [1,3-dimethyl-8-[[methyl-(phenylmethyl)amino]methyl]-7H-purine-2,6-dione]: the concentration for a half-maximal effect (EC50) was above 300 µM. Turning to `CCOC(=O)CSc1ccc2nnc(CCNS(=O)(=O)c3ccccc3)n2n1` [ethyl [(3-{2-[(phenylsulfonyl)amino]ethyl}[1,2,4]triazolo[4,3-b]pyridazin-6-yl)thio]acetate], the concentration for a half-maximal effect (EC50) is above 300 µM. The value for `CN(C)C(CNC(=O)c1ccc2ccccc2c1)c1ccco1` (stereo not given) [SMR000377096] was above 300 µM; that for `Cc1ccc(N(c2ncnc(N)c2[N+](=O)[O-])C2CCCCC2)cc1` [N-cyclohexyl-N-(4-methylphenyl)-5-nitro-4,6-pyrimidinediamine] was above 300 µM. `Cc1cccc(Nc2nc(N3CCN(C)CC3)nc(N)c2[N+](=O)[O-])c1` [N4-(3-methylphenyl)-2-(4-methylpiperazin-1-yl)-5-nitro-pyrimidine-4,6-diamine] showed an EC50 above 300 µM. The value for `COc1ccc(-c2nn(-c3ccccc3)cc2C(=O)O)cc1OC` [SMR000124387] was above 300 µM; that for `Cc1ccnc(NC(=O)c2ccc([N+](=O)[O-])o2)c1` [5-nitro-N-(4-methyl-2-pyridinyl)-2-furamide] was above 300 µM.

As for `Cc1c(C(=O)NN=Cc2ccccn2)nnn1-c1nonc1N` [1-(4-amino-1,2,5-oxadiazol-3-yl)-5-methyl-N-(pyridin-2-ylmethylideneamino)triazole-4-carboxamide], the EC50 is above 300 µM.

Take `COc1ccccc1Nc1nc(N(C)c2ccccc2)nc(N)c1[N+](=O)[O-]` [SMR000542836]: the EC50 was above 300 µM. On to `COCCN(CC(=O)NCc1ccccc1)C(=O)CCC(=O)Nc1ccccn1` [SMR000004552], for which the concentration giving a half-maximal response (EC50) was above 300 µM.

As for `O=C1Nc2ccccc2C1C=Nc1ccc2c(c1)OCO2` (stereo not given) [(3Z)-3-[(1,3-benzodioxol-5-ylamino)methylidene]-1H-indol-2-one], the midpoint of the response, the EC50, lay at 11.4 µM. The value for `O=C1N=C(S)SC1=Cc1ccc(N2CCOCC2)o1` was 8.5 µM; that for `COC(=O)[C@@H]1Cc2c([nH]c3ccccc23)C2CCC(=O)N21` (stereo partly drawn) [methyl (5S)-3-oxidanylidene-1,2,5,6,11,11b-hexahydroindolizino[8,7-b]indole-5-carboxylate] was above 300 µM; that for `COCCCNC(=O)c1cccn2c(=O)c3cc4ccccc4cc3nc12` [N-(3-methoxypropyl)-12-oxidanylidene-12H-benzo[g]pyrido[2,1-b]quinazoline-4-carboxamide] was 0.531 µM. `Cc1cc(NC(=O)CSc2nc(-c3cccnc3)ccc2C#N)no1` [MLS000036936] yielded an EC50 above 300 µM.

`O=Cc1cn(CCC(=O)O)nc1-c1cccc(Cl)c1` yielded a concentration giving a half-maximal response (EC50) above 300 µM. The value for `NNc1nccc(Nc2ccccc2C(=O)O)n1` [2-[(2-hydrazinyl-4-pyrimidinyl)amino]benzoic acid] was 2.92 µM; that for `CCOc1ccc(Nc2nc(N)c([N+](=O)[O-])c(NCc3ccccc3)n2)cc1` [N'-Benzyl-N-(4-ethoxy-phenyl)-5-nitro-pyrimidine-2,4,6-triamine] was above 300 µM. The value for `N#Cc1c2n(c3c(=O)[nH]cnc13)CCCC2` was 56.4 µM; that for `CCCCn1nc(NC(=O)CCC)c2cc3cc(OC)ccc3nc21` [MLS001214871] was above 300 µM. For the molecule `COc1cccc2cc(CC(=O)c3cc(C)ccc3C)c(=O)oc12` [MLS001198676], the EC50 is above 300 µM.

`COc1cccc2c1cc1c(=O)n(CC(=O)N3CCC(C)CC3)nc(C)n12` displayed a 50% effective concentration (EC50) above 300 µM. The value for `COC(CNC(=O)CCc1c(C)nc2c(c(C)nn2-c2ccc(C)cc2)c1C)OC` [N-(2,2-dimethoxyethyl)-3-[3,4,6-trimethyl-1-(4-methylphenyl)pyrazolo[3,4-b]pyridin-5-yl]propanamide] was above 300 µM; that for `O=NCc1ccc(Sc2ccccc2)c([N+](=O)[O-])c1` [N-[(3-nitro-4-phenylsulfanylphenyl)methylidene]hydroxylamine] was 39.3 µM; that for `Fc1ccccc1CNc1nc(-c2cccnc2)nc2ccccc12` [N-[(2-fluorophenyl)methyl]-2-pyridin-3-ylquinazolin-4-amine] was above 300 µM. The value for `Nc1nc(NCc2ccco2)nc(NCCO)c1[N+](=O)[O-]` was above 300 µM.

The molecule `COC1=C/C(=C/c2c(N)n3cc(C)sc3nc2=O)C=CC1=O` showed an EC50 above 300 µM. As for `Cc1ccc(CNc2nc(N)c([N+](=O)[O-])c(Nc3cccc(F)c3)n2)cc1` [SMR000148340], the concentration for a half-maximal effect (EC50) is above 300 µM. The value for `O=C(O)CCn1cc(/C=C\C(=O)c2ccc(Cl)cc2)c(-c2cccc(Br)c2)n1` [3-[3-(3-bromophenyl)-4-[(Z)-3-(4-chlorophenyl)-3-oxoprop-1-enyl]pyrazol-1-yl]propanoic acid] was above 300 µM.

Turning to `CCOc1ccccc1NC(=O)N1CCC2(CC1)OCCO2` [MLS000581263], the half-maximal effective concentration (EC50) was above 300 µM. The value for `CC(C)N1C(=O)N(c2ccc(Cl)cc2)C(C)(O)CC1(C)C` (stereo not given) [SMR000539554] was above 300 µM; that for `COCCCNc1nc(N)c([N+](=O)[O-])c(Nc2ccccc2OC)n1` [4-N-(2-methoxyphenyl)-2-N-(3-methoxypropyl)-5-nitropyrimidine-2,4,6-triamine] was 0.231 µM. The molecule `COCCn1c(SCC(=O)Nc2ccc(Cl)c(S(=O)(=O)N(C)C)c2)nc2ccccc21` [MLS000536225] gave an EC50 above 300 µM. The molecule `Cc1cc(NC(=O)CCN2CCC(C)CC2)ccc1Br` [N-(4-bromo-3-methylphenyl)-3-(4-methyl-1-piperidinyl)propanamide;hydrochloride] showed a 50% effective concentration (EC50) above 300 µM. The value for `CCOC(=O)CC(=O)CSc1ccc2nnc(-c3ccc(F)cc3)n2n1` [ethyl 4-{[3-(4-fluorophenyl)[1,2,4]triazolo[4,3-b]pyridazin-6-yl]thio}-3-oxobutanoate] was 83.8 µM; that for `Cc1ccc(Nc2nc(NCCCN3CCOCC3)nc(N)c2[N+](=O)[O-])cc1` [N4-(4-methylphenyl)-N2-(3-morpholin-4-ylpropyl)-5-nitro-pyrimidine-2,4,6-triamine] was above 300 µM.

The values are drawn from BindingDB's records for doi:10.7270/Q2TX3CTT (Broad Institute, 2010).
